Laboratory results reported in PubChem BioAssay AID743404 (Broad Institute, 2014).
Active and inactive are the calls of the source. How the calls were made is not given here.

Test system: Mycobacterium tuberculosis replicating growth, CFU imaging
Assay: replicating M. tuberculosis growth inhibition, dose response, imaging, dry powder (AID 743404)
Settings: not given
Molecule `Cn1c(NC(=O)c2ccccc2)nc2c3cnccc3ccc21` has an AC90 of 14.4 µM.
`Cn1c(NC(=O)c2cccnc2)nc2ccccc21` showed an AC90 of 99.8 µM.
With `Cc1ccccc1C(=O)Nc1nc2ccccc2n1C` the AC90 was > 100 µM (inactive).
Work on `Cn1c(NC(=O)c2ccccc2)nc2c3ncccc3ccc21` yielded an AC90 of 10.6 µM.
For `Cn1c(N)nc2ccccc21`, the AC90 was > 50 µM (inactive).
In the case of `Cn1c(NC(=O)c2ccccc2)nc2c(Cl)cccc21`, the AC90 is reported as > 100 µM (inactive).
In the case of `CO[C@H]1/C=C/O[C@@]2(C)Oc3c(C)c(O)c4c(O)c(c(C=NN5CCN(C)CC5)c(O)c4c3C2=O)NC(=O)/C(C)=C\C=C\[C@H](C)[C@H](O)[C@@H](C)[C@@H](O)[C@@H](C)[C@H](OC(C)=O)[C@@H]1C`, the AC90 is reported as 6.43 µM.
In the case of `CN1CCN(c2ccc(C(=O)Nc3nc4ccccc4n3C)cc2)CC1`, the AC90 is reported as > 100 µM (inactive).
For `CCN(CC)CCn1c(NC(=O)c2ccccc2)nc2ccccc21`, the AC90 was 102 µM.
In the case of `Cn1c(NC(=O)c2ccccc2)nc2c(C#N)cccc21`, the AC90 is reported as > 100 µM (inactive).
In the case of `Cn1c(NC(=O)c2ccc(N3CCCCC3)cc2)nc2ccccc21`, the AC90 is reported as > 100 µM (inactive).
With `Cn1c(NC(=O)c2ccccc2)nc2c3ccncc3ccc21` the AC90 was 18.4 µM.
For `Cn1c(NC(=O)c2ccccc2)nc2cc(C#N)ccc21`, the AC90 was > 100 µM (inactive).
In the case of `Cn1c(NC(=O)c2ccccc2)nc2c3nccnc3ccc21`, the AC90 is reported as 63.9 µM.
With `O=C(Nc1nc2ccccc2n1C1CCCCC1)c1ccccc1` the AC90 was > 100 µM (inactive).
With `Cn1c(N2CCN(C(=O)c3ccccc3)CC2)nc2ccccc21` the AC90 was > 100 µM (inactive).

Test system: not listed separately
Assay: as above
Settings: Mycobacterium tuberculosis replicating growth, CFU imaging; at 50 µM (top of the series)
In the case of `O=C(Nc1nc2ccccc2n1-c1ccccc1)c1ccccc1`, the activity change, negative = inhibition is reported as -7.02% (inactive).

Same assay, conditions: Mycobacterium tuberculosis replicating growth, CFU imaging; at 100 µM (top of the series)
In the case of `CC(C)n1c(NC(=O)c2ccccc2)nc2ccccc21`, the activity change, negative = inhibition is reported as -7.84% (inactive).
For `Cn1c(NC(=O)c2ccc(C#N)cc2)nc2ccccc21`, the activity change, negative = inhibition was -1.94% (inactive).
In the case of `Cn1c(NC(=O)c2ccccc2)nc2ccc(F)cc21`, the activity change, negative = inhibition is reported as -13% (inactive).
For `Cn1c(NC(=O)c2ccncc2)nc2ccccc21`, the activity change, negative = inhibition was -9.25% (inactive).
In the case of `O=C(Nc1nc2ccccc2n1CCN1CCOCC1)c1ccccc1`, the activity change, negative = inhibition is reported as -5.41% (inactive).
With `Cc1cc(C(=O)Nc2nc3ccccc3n2C)on1` the activity change, negative = inhibition was -7.86% (inactive).
For `Cn1c(NC(=O)Cc2ccccc2)nc2ccccc21`, the activity change, negative = inhibition was -15.4% (inactive).
For `Cn1c(NC(=O)c2ccc(Cl)c(Cl)c2)nc2ccccc21`, the activity change, negative = inhibition was 0.098% (inactive).
With `O=C(Nc1nc2ccccc2n1Cc1ccccc1)c1ccccc1` the activity change, negative = inhibition was 3.29% (inactive).
With `COc1ccc2c(c1)nc(NC(=O)c1ccccc1)n2C` the activity change, negative = inhibition was -10.1% (inactive).
For `COCCn1c(NC(=O)c2ccccc2)nc2ccccc21`, the activity change, negative = inhibition was -13.8% (inactive).
For `Cn1c(NC(=O)c2ccno2)nc2ccccc21`, the activity change, negative = inhibition was -5.54% (inactive).
With `Cn1c(NC(=O)c2ccc(F)c(F)c2)nc2ccccc21` the activity change, negative = inhibition was 1.94% (inactive).
With `Cn1c(NC(=O)c2ccccc2)nc2cccnc21` the activity change, negative = inhibition was -6.96% (inactive).
In the case of `Cn1c(NC(=O)c2ccc(OC(F)(F)F)cc2)nc2ccccc21`, the activity change, negative = inhibition is reported as 1.97% (inactive).
In the case of `Cn1c(NC(=O)c2ccc(N3CCOCC3)cc2)nc2ccccc21`, the activity change, negative = inhibition is reported as -9.12% (inactive).
For `CN(C(=O)c1ccccc1)c1nc2ccccc2n1C`, the activity change, negative = inhibition was -7.26% (inactive).
For `Cn1c(NC(=O)c2ccccc2Cl)nc2ccccc21`, the activity change, negative = inhibition was -2.89% (inactive).
In the case of `CC(C)Oc1ccc(C(=O)Nc2nc3ccccc3n2C)cc1`, the activity change, negative = inhibition is reported as -8.59% (inactive).
For `Cn1c(NC(=O)c2ccccc2)nc2cc(F)ccc21`, the activity change, negative = inhibition was -9.27% (inactive).
With `Cn1c(NC(=O)c2ccc(Oc3ccccc3)cc2)nc2ccccc21` the activity change, negative = inhibition was -18.8% (inactive).
With `O=C(Nc1nc2ccccc2[nH]1)c1ccccc1` the activity change, negative = inhibition was 1.93% (inactive).
In the case of `Cn1c(C(=O)Nc2ccccc2)nc2ccccc21`, the activity change, negative = inhibition is reported as -11.4% (inactive).
For `Cn1c(NC(=O)c2ccccc2)nc2ccc3ncccc3c21`, the activity change, negative = inhibition was -10.6% (inactive).
In the case of `Cn1c(NC(=O)c2ccccc2C(F)(F)F)nc2ccccc21`, the activity change, negative = inhibition is reported as -8.14% (inactive).
In the case of `Cn1c(NC(=O)c2nc3ccccc3s2)nc2ccccc21`, the activity change, negative = inhibition is reported as 3.65% (inactive).
With `Cn1c(NC(=O)c2ccc(-c3ncco3)cc2)nc2ccccc21` the activity change, negative = inhibition was -1.55% (inactive).
In the case of `COc1ccc(C(=O)Nc2nc3ccccc3n2C)cc1OC`, the activity change, negative = inhibition is reported as -3.35% (inactive).
In the case of `Cn1c(NC(=O)Nc2ccccc2)nc2ccccc21`, the activity change, negative = inhibition is reported as -16.1% (inactive).
For `COc1ccc(C(=O)Nc2nc3ccccc3n2C)cc1`, the activity change, negative = inhibition was -7.64% (inactive).
With `COc1cccc(C(=O)Nc2nc3ccccc3n2C)c1` the activity change, negative = inhibition was -11.3% (inactive).
With `O=C(Nc1nc2ccccc2s1)c1ccccc1` the activity change, negative = inhibition was -9.11% (inactive).
In the case of `COc1ccccc1C(=O)Nc1nc2ccccc2n1C`, the activity change, negative = inhibition is reported as -18% (inactive).
For `Cn1c(NC(=O)c2ccc(-c3nccs3)cc2)nc2ccccc21`, the activity change, negative = inhibition was 1.95% (inactive).
For `Cn1c(NC(=O)c2ccccc2)nc2ccc(C#N)cc21`, the activity change, negative = inhibition was 4.9% (inactive).
For `Cn1c(NC(=O)c2cccs2)nc2ccccc21`, the activity change, negative = inhibition was -15.5% (inactive).
In the case of `CC(=O)Nc1nc2ccccc2n1C`, the activity change, negative = inhibition is reported as -2.24% (inactive).
For `Cn1c(NS(=O)(=O)c2ccccc2)nc2ccccc21`, the activity change, negative = inhibition was -4.4% (inactive).
In the case of `Cn1c(NC(=O)c2ccc(-n3ccnn3)cc2)nc2ccccc21`, the activity change, negative = inhibition is reported as 0.752% (inactive).
In the case of `Cn1c(NC(=O)c2ccc(N3CCOC3=O)cc2)nc2ccccc21`, the activity change, negative = inhibition is reported as 3.62% (inactive).
With `Cn1c(NC(=O)c2ccccc2)nc2cc(Cl)ccc21` the activity change, negative = inhibition was -6.62% (inactive).
In the case of `Cn1c(NC(=O)c2ccccc2)nc2cccc(Cl)c21`, the activity change, negative = inhibition is reported as -2% (inactive).
With `Cc1ccc2c(c1)nc(NC(=O)c1ccccc1)n2C` the activity change, negative = inhibition was -14.6% (inactive).
In the case of `Cn1c(NC(=O)c2ccc3ncoc3c2)nc2ccccc21`, the activity change, negative = inhibition is reported as 1.4% (inactive).
With `Cn1c(NC(=O)c2cccc(C(F)(F)F)c2)nc2ccccc21` the activity change, negative = inhibition was -12.4% (inactive).
In the case of `COc1cccc2c1nc(NC(=O)c1ccccc1)n2C`, the activity change, negative = inhibition is reported as -17.3% (inactive).
With `Cn1c(NC(=O)c2ccccc2)nc2cc(C(F)(F)F)ccc21` the activity change, negative = inhibition was -1.86% (inactive).
For `O=C(Nc1nc2ccccc2n1C1CC1)c1ccccc1`, the activity change, negative = inhibition was -6.92% (inactive).
